Where “and” joins values, the source holds several entries; their conditions need not be identical. Identical values can stand only once. Like-named read-outs stand apart in the source and are kept apart here. Ends that are not written are not given here.
What was measured:
[1] = test system: TRP2-induced ERK1/2 phosphorylation; assay: Effect of inhibitors on TRP2-induced ERK1/2 phosphorylation, HEK293 cells; assay type: cell-based, Homo sapiens
[2] = test system: TRP2-induced ERK1/2 phosphorylation; assay: Effect of inhibitors on TRP2-induced ERK1/2 phosphorylation, Sf21 cells; assay type: cell-based, Spodoptera frugiperda
[3] = test system: TRP2-mediated cAMP accumulation; assay: Effect of PTX, CTX, YM-254890 and H89 on TRP2-mediated cAMP accumulation, HEK293 cells expressing TRPR; assay type: cell-based, Homo sapiens
[4] = test system: honeybee TRPR; assay: Competitive binding of TRPs to TRPR in HEK293 cells (displacement of TAMRA-TRP2/TAMRA-TRP3); parameters: species or system Apis mellifera; conditions: HEK293
[5] = test system: honeybee TRPR; assay: Competitive binding of TRPs to TRPR in Sf21 cells (displacement of TAMRA-TRP2/TAMRA-TRP3); parameters: species or system Apis mellifera
[6] = test system: TRPR
[7] = test system: TRPR; remark: listed apart in the source
[8] = test system: TRPR; remark: listed apart in the source
[9] = target: honeybee tachykinin-related peptide receptor (FLAG-TRPR) expressed in HEK293 cells (Apis mellifera)
honeybee tachykinin-related peptide receptor (FLAG-TRPR) expressed in HEK293 cells (Apis mellifera), sequence (A0ACM8RFV8 entry or part of it): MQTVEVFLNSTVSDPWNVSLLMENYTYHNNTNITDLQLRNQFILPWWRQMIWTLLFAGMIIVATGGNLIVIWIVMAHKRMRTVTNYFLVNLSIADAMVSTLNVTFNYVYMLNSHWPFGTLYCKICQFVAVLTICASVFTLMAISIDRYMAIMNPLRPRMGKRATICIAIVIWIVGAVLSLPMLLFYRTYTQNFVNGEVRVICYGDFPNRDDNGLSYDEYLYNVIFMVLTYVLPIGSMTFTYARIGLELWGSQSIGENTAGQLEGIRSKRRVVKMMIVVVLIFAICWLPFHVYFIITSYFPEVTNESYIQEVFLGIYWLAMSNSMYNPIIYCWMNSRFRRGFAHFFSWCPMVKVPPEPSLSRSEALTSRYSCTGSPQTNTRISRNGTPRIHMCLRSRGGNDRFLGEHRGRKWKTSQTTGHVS

[10] = target: honeybee tachykinin-related peptide receptor (FLAG-TRPR) expressed in HEK293 cells (Apis mellifera); remark: listed apart in the source
[11] = target: honeybee tachykinin-related peptide receptor (FLAG-TRPR) expressed in Sf21 cells (Apis mellifera)
honeybee tachykinin-related peptide receptor (FLAG-TRPR) expressed in Sf21 cells (Apis mellifera), sequence (A0ACM8RFV8 entry or part of it): as above

[12] = HEK293, 2 hr pretreatment, then TRP2 (10 nM or 1 μM) for 10 min
[13] = Sf21, 2 hr pretreatment, then TRP2 (10 nM or 1 μM) for 10 min

## COc1ccc2c(c1)c(C1=C(c3c[nH]c4ccccc34)C(=O)NC1=O)cn2CCCN(C)C [Go6983]
[1]; [12]
  inhibition of TRP/TRPR-mediated ERK activation: significant inhibition
[2]; [13]
  inhibition of TRP/TRPR-mediated ERK activation: significant inhibition

## Cl.Cl.O=S(=O)(NCCNC/C=C/c1ccc(Br)cc1)c1cccc2cnccc12 [H89]
[3]; Suppl.3B, with TRP2, replicate 1
  cAMP accumulation: 18.636
[3]; Suppl.3B, with TRP2, replicate 2
  cAMP accumulation: 15.003
[3]; Suppl.3B, with TRP2, replicate 3
  cAMP accumulation: 13.325
[3]; Suppl.3B, with ddH2O (no TRP2), replicate 1
  cAMP accumulation: 3.551
[3]; Suppl.3B, with ddH2O (no TRP2), replicate 2
  cAMP accumulation: 2.309
[3]; Suppl.3B, with ddH2O (no TRP2), replicate 3
  cAMP accumulation: 2.639
[1]; [12]
  inhibition of TRP/TRPR-mediated ERK activation: significant inhibition
[2]; [13]
  inhibition of TRP/TRPR-mediated ERK activation: significant inhibition

## N#CC(=C(/N)Sc1ccccc1N)/C(C#N)=C(/N)Sc1ccccc1N [U0126]
[1]; [12]
  inhibition of TRP/TRPR-mediated ERK activation: significant inhibition
[2]; [13]
  inhibition of TRP/TRPR-mediated ERK activation: significant inhibition

## APMGFQGMRa [TRP3]
[4]; Log (M) -4, replicate 1
  competitive binding (residual TAMRA-TRP binding): 5.1560
[4]; Log (M) -4, replicate 2
  competitive binding (residual TAMRA-TRP binding): 4.9306
[4]; Log (M) -4, replicate 3
  competitive binding (residual TAMRA-TRP binding): 5.6578
[4]; Log (M) -5, replicate 1
  competitive binding (residual TAMRA-TRP binding): 9.5134
[4]; Log (M) -5, replicate 2
  competitive binding (residual TAMRA-TRP binding): 5.2301
[4]; Log (M) -5, replicate 3
  competitive binding (residual TAMRA-TRP binding): 6.7532
[4]; Log (M) -6, replicate 1
  competitive binding (residual TAMRA-TRP binding): 19.3191
[4]; Log (M) -6, replicate 2
  competitive binding (residual TAMRA-TRP binding): 12.3643
[4]; Log (M) -6, replicate 3
  competitive binding (residual TAMRA-TRP binding): 13.3614
[4]; Log (M) -7, replicate 1
  competitive binding (residual TAMRA-TRP binding): 23.7138
[4]; Log (M) -7, replicate 2
  competitive binding (residual TAMRA-TRP binding): 20.6042
[4]; Log (M) -7, replicate 3
  competitive binding (residual TAMRA-TRP binding): 26.4738
[4]; Log (M) -8, replicate 1
  competitive binding (residual TAMRA-TRP binding): 49.0125
[4]; Log (M) -8, replicate 2
  competitive binding (residual TAMRA-TRP binding): 48.4899
[4]; Log (M) -8, replicate 3
  competitive binding (residual TAMRA-TRP binding): 40.9813
[4]; Log (M) -9, replicate 1
  competitive binding (residual TAMRA-TRP binding): 72.5758
[4]; Log (M) -9, replicate 2
  competitive binding (residual TAMRA-TRP binding): 73.4731
[4]; Log (M) -9, replicate 3
  competitive binding (residual TAMRA-TRP binding): 66.5477
[4]; Log (M) -10, replicate 1
  competitive binding (residual TAMRA-TRP binding): 84.1720
[4]; Log (M) -10, replicate 2
  competitive binding (residual TAMRA-TRP binding): 90.8395
[4]; Log (M) -10, replicate 3
  competitive binding (residual TAMRA-TRP binding): 88.1290
[4]; Log (M) -11, replicate 1
  competitive binding (residual TAMRA-TRP binding): 92.0860
[4]; Log (M) -11, replicate 2
  competitive binding (residual TAMRA-TRP binding): 97.3869
[4]; Log (M) -11, replicate 3
  competitive binding (residual TAMRA-TRP binding): 95.5950
[4]; Log (M) -12, replicate 1
  competitive binding (residual TAMRA-TRP binding): 93.1313
[4]; Log (M) -12, replicate 2
  competitive binding (residual TAMRA-TRP binding): 100.0000
[4]; Log (M) -12, replicate 3
  competitive binding (residual TAMRA-TRP binding): 92.9969
[5]; Log (M) -4, replicate 1
  competitive binding: 26.3879
[5]; Log (M) -4, replicate 2
  competitive binding: 30.2236
[5]; Log (M) -4, replicate 3
  competitive binding: 35.2235
[5]; Log (M) -5, replicate 1
  competitive binding: 39.1647
[5]; Log (M) -5, replicate 2
  competitive binding: 34.4531
[5]; Log (M) -5, replicate 3
  competitive binding: 41.6285
[5]; Log (M) -6, replicate 1
  competitive binding: 40.2510
[5]; Log (M) -6, replicate 2
  competitive binding: 48.0008
[5]; Log (M) -6, replicate 3
  competitive binding: 38.3975
[5]; Log (M) -7, replicate 1
  competitive binding: 53.7851
[5]; Log (M) -7, replicate 2
  competitive binding: 58.0646
[5]; Log (M) -7, replicate 3
  competitive binding: 56.8212
[5]; Log (M) -8, replicate 1
  competitive binding: 73.9138
[5]; Log (M) -8, replicate 2
  competitive binding: 70.3389
[5]; Log (M) -8, replicate 3
  competitive binding: 76.0795
[5]; Log (M) -9, replicate 1
  competitive binding: 79.8334
[5]; Log (M) -9, replicate 2
  competitive binding: 84.1204
[5]; Log (M) -9, replicate 3
  competitive binding: 84.2025
[5]; Log (M) -10, replicate 1
  competitive binding: 93.5892
[5]; Log (M) -10, replicate 2
  competitive binding: 92.3234
[5]; Log (M) -10, replicate 3
  competitive binding: 96.9419
[5]; Log (M) -11, replicate 1
  competitive binding: 93.4444
[5]; Log (M) -11, replicate 2
  competitive binding: 100.0000
[5]; Log (M) -11, replicate 3
  competitive binding: 96.2965
[5]; Log (M) -12, replicate 1
  competitive binding: 95.2946
[5]; Log (M) -12, replicate 2
  competitive binding: 98.1256
[5]; Log (M) -12, replicate 3
  competitive binding: 92.1545
[6]
  increase of cAMP levels: more than 10 fold
[7]
  intracellular Ca2+ levels: rose sharply

## cholera toxin [CTX]
[3]
  cAMP accumulation: 18.981 and 16.723 and 16.035 and 22.197 and 20.493 and 23.072

## corazonin [CRZ, reference compound]
[6]
  cAMP accumulation: did not induce any detectable cAMP accumulation
[8]
  cAMP accumulation: did not induce any detectable cAMP accumulation

## pertussis toxin [PTX]
[1]
  inhibition of TRP/TRPR-mediated ERK activation: had no effect
[2]
  inhibition of TRP/TRPR-mediated ERK activation: had no effect

## pigment-dispersing hormone [PDH, reference compound]
[6]
  cAMP accumulation: did not induce any detectable cAMP accumulation
[8]
  cAMP accumulation: did not induce any detectable cAMP accumulation

## short neuropeptide F [SNF, reference compound]
[6]
  cAMP accumulation: did not induce any detectable cAMP accumulation
[8]
  cAMP accumulation: did not induce any detectable cAMP accumulation

B1: tachykinin-related peptide 3 (TRP3), unlabeled synthetic peptide (peptide)
peptide: APMGFQGMR-NH2
[9]
  luciferase activity (pCRE-Luc reporter of cAMP) of HEK293 cells co-transfected with pFLAG-TRPR, 1 μM TRP3, against vehicle vector: > 10 fold

B2: tachykinin-related peptide 2 (TRP2), unlabeled synthetic peptide (peptide)
peptide: ALMGFQGVR
modifications: ends and bridges not checked
[10]
  EC50 of ERK1/2 phosphorylation (Western blot) in HEK293 cells expressing TRPR, TRP2 from 0.1 pM to 1 μM for 10 min: 68 nM
[11]
  EC50 of ERK1/2 phosphorylation (Western blot) in Sf21 cells expressing TRPR, TRP2 from 0.1 pM to 1 μM for 10 min: 1.68 nM
[9]
  luciferase activity (pCRE-Luc reporter of cAMP) of HEK293 cells co-transfected with pFLAG-TRPR, 1 μM TRP2, against vehicle vector: > 10 fold

— paper PMC8016481, “Tachykinin signaling inhibits task-specific behavioral responsiveness in honeybee workers” (eLife, 2021)
